Measured values from ChEMBL document CHEMBL2007661, “Compounds: GSK PKIS; Assays: UNC Frye lab” (2012).
“And” between values parts separate entries of the source, which are not always exact repeats. Identical values can stand only once.

Legend:
[1] = target: T1, Serine/threonine-protein kinase TBK1 (Homo sapiens) (UniProt Q9UHD2); settings: at 1 µM
T1 sequence (whole entry): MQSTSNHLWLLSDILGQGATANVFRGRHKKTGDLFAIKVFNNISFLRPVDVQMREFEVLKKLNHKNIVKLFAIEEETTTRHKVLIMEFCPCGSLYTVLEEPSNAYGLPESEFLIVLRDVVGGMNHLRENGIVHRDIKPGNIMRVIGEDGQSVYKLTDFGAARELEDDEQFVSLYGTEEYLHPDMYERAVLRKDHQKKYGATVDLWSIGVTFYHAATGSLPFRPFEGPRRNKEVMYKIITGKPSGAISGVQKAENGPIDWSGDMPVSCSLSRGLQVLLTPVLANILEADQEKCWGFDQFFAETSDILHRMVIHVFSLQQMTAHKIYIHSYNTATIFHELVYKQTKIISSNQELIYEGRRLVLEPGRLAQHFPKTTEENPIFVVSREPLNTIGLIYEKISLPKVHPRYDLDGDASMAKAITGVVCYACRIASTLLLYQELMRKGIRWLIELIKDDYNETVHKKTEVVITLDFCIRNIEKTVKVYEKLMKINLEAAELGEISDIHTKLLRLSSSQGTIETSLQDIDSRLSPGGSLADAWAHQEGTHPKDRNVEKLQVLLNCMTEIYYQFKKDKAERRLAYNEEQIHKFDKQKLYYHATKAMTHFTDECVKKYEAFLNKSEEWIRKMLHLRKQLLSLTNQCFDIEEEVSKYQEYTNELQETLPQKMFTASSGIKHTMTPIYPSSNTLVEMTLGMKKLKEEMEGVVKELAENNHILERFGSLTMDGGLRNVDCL

[2] = target: T2, Inhibitor of nuclear factor kappa-B kinase subunit alpha (Homo sapiens) (UniProt O15111); settings: at 1 µM
T2 sequence (whole entry): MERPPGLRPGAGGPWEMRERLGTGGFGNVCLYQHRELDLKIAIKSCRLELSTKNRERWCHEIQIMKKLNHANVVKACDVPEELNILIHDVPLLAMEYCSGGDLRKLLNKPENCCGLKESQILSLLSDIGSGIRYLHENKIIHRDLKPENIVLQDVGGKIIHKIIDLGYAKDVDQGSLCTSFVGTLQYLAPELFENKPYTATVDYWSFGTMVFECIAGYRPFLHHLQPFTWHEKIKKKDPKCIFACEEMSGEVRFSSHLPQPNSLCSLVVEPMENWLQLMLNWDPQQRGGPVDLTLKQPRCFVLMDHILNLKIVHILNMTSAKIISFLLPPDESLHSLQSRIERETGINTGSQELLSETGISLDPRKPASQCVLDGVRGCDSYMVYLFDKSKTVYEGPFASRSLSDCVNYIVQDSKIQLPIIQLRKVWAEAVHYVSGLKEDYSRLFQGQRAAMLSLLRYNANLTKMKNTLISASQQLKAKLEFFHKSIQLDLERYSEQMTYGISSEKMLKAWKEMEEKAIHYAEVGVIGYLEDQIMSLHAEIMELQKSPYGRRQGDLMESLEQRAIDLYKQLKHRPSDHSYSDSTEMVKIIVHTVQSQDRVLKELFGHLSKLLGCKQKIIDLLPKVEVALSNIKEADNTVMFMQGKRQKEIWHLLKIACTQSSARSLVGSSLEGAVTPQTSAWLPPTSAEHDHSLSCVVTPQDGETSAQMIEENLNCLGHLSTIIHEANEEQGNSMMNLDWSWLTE

Row | inhibition [1] | inhibition [2] | SMILES
1 | 1% and -1% | -4% | CC1=C(C(=O)Nc2ccc3[nH]ncc3c2)C(c2ccc(F)cc2)N=C(c2ccc(C(F)(F)F)nc2)N1 (stereo unspecified)
2 | 1% and 2% | 13% | COc1cccc(-n2ncc3c(N/N=C/c4ccc(C)cc4)ncnc32)c1
3 | 20% and 30% | 3% and 2% | COc1cccc(-n2ncc3c(N/N=C/c4ccc(S(C)(=O)=O)cc4)ncnc32)c1
